Source: patent US12215127B2 (priority 2020, dated 2025)

Target: Clostridium perfringens CGH (Clostridium perfringens, UniProt P54965)
Type: binding
Details: 0-500 μM, 37° C., 24 h, in-gel fluorescence

Chain of Clostridium perfringens CGH (P54965 whole entry, looked up): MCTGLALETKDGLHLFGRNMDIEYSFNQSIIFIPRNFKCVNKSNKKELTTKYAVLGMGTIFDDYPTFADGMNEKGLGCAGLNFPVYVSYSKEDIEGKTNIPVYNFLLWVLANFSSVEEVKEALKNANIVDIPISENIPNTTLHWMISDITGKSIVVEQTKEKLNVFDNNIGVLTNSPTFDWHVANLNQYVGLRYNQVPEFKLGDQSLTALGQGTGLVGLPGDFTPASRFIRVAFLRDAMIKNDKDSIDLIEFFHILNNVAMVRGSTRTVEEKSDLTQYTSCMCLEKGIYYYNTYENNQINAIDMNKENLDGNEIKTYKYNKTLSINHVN

Structure (SMILES)	labeling of C. perfringens BSH
Cc1cccc(C)c1C(=O)OCC(=O)CC[C@@H](C)[C@H]1CC[C@H]2[C@@H]3CC[C@@H]4C[C@H](N=[N+]=[N-])CC[C@]4(C)[C@H]3C[C@H](O)[C@]12C [DCA-AOMK, N3-DCA-AOMK]	label Clostridium perfringens bile salt hydrolase (BSH)
Cc1cccc(C)c1C(=O)OCC(=O)CC[C@@H](C)[C@H]1CC[C@H]2[C@@H]3[C@H](O)C[C@@H]4C[C@H](N=[N+]=[N-])CC[C@]4(C)[C@H]3CC[C@]12C [CDCA-AOMK, N3-CDCA-AOMK]	label Clostridium perfringens bile salt hydrolase (BSH)
